Experimental data as given in patent publication US20040122061A1, “Inhibitors of post-amadori advanced glycation end products” (BioStratum, Inc., priority 2002, published 2004).
Where two headings read alike, the source gives them in different places.

Columns and labels:
bovine serum albumin = molecular target: T1, bovine serum albumin (Bos taurus, UniProt P02769); assay: Compound binding to plasma albumin (ultrafiltration, free compound), BSA; format: in vitro ADME; conditions: BSA 40 mg/ml; for fraction unbound at 8 μg/ml: compound 8 μg/ml; for Kd: read-out: Computed (1:1) Kd
T1 construct: from tissue; host or cells: plasma / serum (from the name; preparation not described)
Protocol: (§1) This study was done to measure the binding of compounds of the present invention to plasma albumin. Such binding can result in longer plasma retention times and enhanced therapeutic efficacy for the compounds. The proteins tested were bovine serum albumin, bovine (BSA) at 40 mg/ml and rat albumin at ˜13 mg/ml.
(§2) Spectrophotmetry: Two mL of protein solution in 0.1M phosphate buffer saline (PBS) at pH 7.4 was titrated with compound in 0.2 M phosphate buffer at pH 7.4. The protein concentration was prepared to have absorbance less than 1 at the observation wavelength range (250-500), and the total volume change during titration was controlled below 2%. The compound-protein binding detection was based on the shift of spectrum.
Free compound measurement: One ml of compound and protein mixture was incubated at 37° C. for about 30 min and loaded into Centricon YM-10 (10,000 MW cut-off, for BSA) or Microcon YC-3 (3,000 MW cut-off). The samples were centrifuged in a fixed-angle rotor at 6,000 rpm for about 6-8 min (Centricon) or at 9,000 rpm for about 15 min (Microcon) to allow about 10-20% of the volume to filter through. Free compound passes through the membrane while the free and complexed protein remains in the sample reservoir. The concentration of free compound in the filtrate is assumed to be the same as in the sample above the membrane. A fixed amount of filtrate aliquot was diluted to 0.6 ml with PBS at pH 7.4 (PBS was prepared using 1 tablet from Sigma dissolved in 200 ml deionized H2O) and measured by UV absorbance. To quantify the percentage of free compound, the same compound at the same concentration in PBS solution, as standard, was prepared in parallel through the same process, or a calibration curve was generated through the same process. 1 ml of PBS solution (as blank) and 1 ml of protein solution (as control) also went through the same process and measurement.
Calculations: The method used to determine the percentage of free compound was either (a) % Free compound=(Asample−Acontrol)/Astandard×100, where, A is absorbance at selected wavelength; or (b) Obtaining free compound concentration of sample from calibration curve, and then divided by total concentration: Kd=[P][L]/[PL] (for 1:1 binding), using BSA MW=70,000.

[1] = tested on: conversion of Amadori compounds to post Amadori advanced glycation endproducts (bovine serum albumin and ribonuclease A glycated by ribose); assay: Interrupted glycation: inhibition of post-Amadori AGE formation; format: biochemical; conditions: interrupted glycation with ribose, 37° C., pH 7.5; read-out: IC50 for inhibiting the conversion of Amadori compounds to post Amadori advanced glycation endproducts
Protocol: The effect of [2,4′]Bipyridinyl-3′-ol, 5-Hydroxymethyl-4-(1H-imidazol-2-yl)-2-methyl-pyridin-3-ol, and 4-(1H-Imidazol-2-yl)-pyridin-3-ol on post-Amadori AGE formation during interrupted glycation of bovine serum albumin and ribonuclease A by ribose was determined in comparison to pyridoxamine. Modification with ribose was done at 37° C. in 0.2 M phosphate buffer of pH 7.5 containing 0.02% sodium azide. The solutions were kept in capped tubes and opened only to remove timed aliquots that were immediately frozen for later carrying out the various analyses. “Interrupted glycation” experiments were carried out by first incubating protein with the ribose at 37° C. for 8 or 24 h, followed by immediate and extensive dialysis against frequent cold buffer changes at 4° C. The samples were then re-incubated by quickly warming to 37° C. in the absence of external ribose. Aliquots were taken and frozen at various intervals for later analysis. (See U.S. Pat. No. 5,985,857)
The interrupted glycation method for following post-Amadori kinetics of AGE formation allows for the rapid quantitative study of “late” stages of the glycation reaction. Importantly, this method allows for inhibition studies that are free of pathways of AGE formation that arise from glycoxidative products of free sugar or Schiff base (Namiki pathway). The experiments were designed to determine the half-maximal inhibitory concentration of these compounds (“IC50 values”) for inhibiting the conversion of Amadori compounds to post Amadori advanced glycation endproducts.

rat albumin = molecular target: T2, rat albumin (Rattus norvegicus, UniProt P02770); assay: Compound binding to plasma albumin (ultrafiltration, free compound), rat albumin; format: in vitro ADME; conditions: compound 10 μg/ml, rat albumin ~13 mg/ml
T2 construct: from tissue; host or cells: plasma (from 'plasma albumin'; preparation not described)
Protocol: as §1, §2
Free compound measurement: One ml of compound and protein mixture was incubated at 37° C. for about 30 min and loaded into Centricon YM-10 (10,000 MW cut-off, for BSA) or Microcon YC-3 (3,000 MW cut-off). […] A fixed amount of filtrate aliquot was diluted to 0.6 ml with PBS at pH 7.4 (PBS was prepared using 1 tablet from Sigma dissolved in 200 ml deionized H2O) and measured by UV absorbance. To quantify the percentage of free compound, the same compound at the same concentration in PBS solution, as standard, was prepared in parallel through the same process, or a calibration curve was generated through the same process. […]

[2] = tested on: streptozotocin (STZ)-diabetic rats; assay: Rat model of diabetic neuropathy (STZ-diabetic rats); format: in vivo; conditions: 50 mg/L in drinking water
Protocol: Our aim was to ascertain whether BST-4997 treatment could correct nerve dysfunction in streptozotocin (STZ)-diabetic rats. Animals (n=10) were made diabetic for 6 weeks (group D), following which they were treated for 2 weeks with BST-4997 (group DBST) given in the drinking water at a concentration of 50 mg/L. They were compared to control non-diabetic rats (groups C). Statistical significance is reported according to the legend: **, *** p<0.01, p<0.001 versus untreated controls; ### p<0.001 treatment effect versus untreated diabetics.
FIG. 13 provides a graphical representation of the effect of BST-4997 on restoring nerve conduction velocity (NCV) in the STZ rats. Motor NCV was tested between the sciatic notch and knee for the nerve branch to tibialis anterior muscle, as described in Cameron et al., Q. J. Exp. Physiol. 74: 917-926 (1989); and Cameron et al., Exp. Neurol. 92: 757-761 (1986). Saphenous sensory NCV was measured between the groin and ankle.
FIG. 14 provides a graphical representation of the effect of BST-4997 on restoring endoneurial perfusion in the STZ rats. Vascular blood flow, pressure, and conductance were measured.
FIG. 15 provides a graphical representation of the effect of BST-4997 on improving pain related measures in the STZ rats. Responses to tactile allodynia, pressure, and thermal stimuli were measured.

[3] = bovine, bovine serum albumin solution (40 mg/ml), pH 7.4, 37° C.
[4] = STZ rats diabetic 6 weeks, then 2 weeks treatment, FIG. 13
[5] = STZ rats, 2 weeks treatment, FIG. 14
[6] = STZ rats, 2 weeks treatment, FIG. 15

T1 sequence (P02769 25-607): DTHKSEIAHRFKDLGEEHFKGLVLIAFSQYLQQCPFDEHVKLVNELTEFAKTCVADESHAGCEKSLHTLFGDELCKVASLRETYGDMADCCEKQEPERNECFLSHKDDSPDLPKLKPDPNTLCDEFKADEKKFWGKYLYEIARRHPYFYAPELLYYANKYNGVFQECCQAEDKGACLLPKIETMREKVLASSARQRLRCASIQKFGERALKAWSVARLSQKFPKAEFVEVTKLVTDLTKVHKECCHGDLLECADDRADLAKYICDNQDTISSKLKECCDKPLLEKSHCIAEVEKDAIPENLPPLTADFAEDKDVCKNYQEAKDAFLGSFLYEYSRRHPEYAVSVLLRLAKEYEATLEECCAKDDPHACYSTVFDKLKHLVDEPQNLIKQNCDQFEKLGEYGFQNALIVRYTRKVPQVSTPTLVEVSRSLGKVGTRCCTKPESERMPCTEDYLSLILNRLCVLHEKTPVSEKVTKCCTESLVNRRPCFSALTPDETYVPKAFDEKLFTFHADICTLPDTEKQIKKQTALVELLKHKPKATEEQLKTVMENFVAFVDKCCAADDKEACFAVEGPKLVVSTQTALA
T2 sequence (P02770 25-608): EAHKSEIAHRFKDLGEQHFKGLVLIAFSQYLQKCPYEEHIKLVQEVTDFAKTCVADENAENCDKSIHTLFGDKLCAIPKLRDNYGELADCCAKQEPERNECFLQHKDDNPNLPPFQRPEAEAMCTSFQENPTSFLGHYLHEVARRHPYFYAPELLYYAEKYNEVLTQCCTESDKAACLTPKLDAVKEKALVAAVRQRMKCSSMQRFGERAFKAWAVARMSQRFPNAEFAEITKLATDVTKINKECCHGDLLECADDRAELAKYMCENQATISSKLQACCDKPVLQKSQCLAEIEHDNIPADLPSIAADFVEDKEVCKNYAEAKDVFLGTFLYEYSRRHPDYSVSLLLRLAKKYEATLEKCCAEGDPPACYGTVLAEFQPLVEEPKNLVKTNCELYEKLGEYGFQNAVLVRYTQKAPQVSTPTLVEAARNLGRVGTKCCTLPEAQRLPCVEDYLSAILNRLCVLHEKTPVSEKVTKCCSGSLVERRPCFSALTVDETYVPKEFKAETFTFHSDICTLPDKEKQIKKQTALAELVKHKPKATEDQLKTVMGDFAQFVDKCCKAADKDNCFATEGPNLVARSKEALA

Oc1cnccc1-c1ccccn1 [BST4944, [2,4′]Bipyridinyl-3′-ol]
fraction unbound at 8 μg/ml (bovine serum albumin; [3]): 0.34 | IC50 [1]: 2 mM

Oc1cnccc1-c1ncc[nH]1 [BST4996, 4-(1H-Imidazol-2-yl)-pyridin-3-ol]
fraction unbound at 8 μg/ml (bovine serum albumin; [3]): 0.53 | IC50 [1]: 0.2 to 0.3 mM

Cc1ncc(CO)c(-c2ncc[nH]2)c1O [BST4997, 5-Hydroxymethyl-4-(1H-imidazol-2-yl)-2-methyl-pyridin-3-ol]
fraction unbound at 5 μg/ml (bovine serum albumin; bovine, bovine serum albumin solution (40 mg/ml), compound 5 μg/ml, pH 7.4, 37° C., read-out: % Free BST4997): 0.31 | fraction unbound at 10 μg/ml (bovine serum albumin; bovine, bovine serum albumin solution (40 mg/ml), compound 10 μg/ml, pH 7.4, 37° C., read-out: % Free BST4997): 0.3 | fraction unbound at 20 μg/ml (bovine serum albumin; bovine, bovine serum albumin solution (40 mg/ml), compound 20 μg/ml, pH 7.4, 37° C., read-out: % Free BST4997): 0.38 | Kd (bovine serum albumin; compound 5 μg/ml): 260 µM | Kd (bovine serum albumin; compound 10 μg/ml): 240 µM | Kd (bovine serum albumin; compound 20 μg/ml): 320 µM | IC50 [1]: 0.2 to 0.3 mM | Kd (rat albumin; read-out: Computed (1:1) Kd): 350 µM | fraction unbound at 10 μg/ml (rat albumin; rat albumin solution (~13 mg/ml), pH 7.4, 37° C., read-out: % Free BST4997): 0.67 | diabetes-associated defect in motor nerve conduction velocity (NCV) [2, 4]: dramatically reduced | diabetes-associated defect in sensory nerve conduction velocity (NCV) [2, 4]: dramatically reduced | correction of nerve dysfunction ([2]; STZ rats, 2 weeks treatment): effective in correcting nerve dysfunction | diabetes-associated defect in endoneurial blood flow [2, 5]: dramatically reduced | diabetes-associated defect in endoneurial vascular conductance [2, 5]: dramatically reduced | diabetes-associated defect in tactile allodynia [2, 6]: dramatically reduced | diabetes-associated defect in thermal hyperalgesia (latency for foot withdrawal from a noxious heat stimulus) [2, 6]: dramatically reduced

Cc1ncc(CO)c(CN)c1O [pyridoxamine, reference compound]
IC50 [1]: ~3 mM
